These results are taken from patent US7198803B2, “Sustained release oral preparations” (Nippon Shinyaku Co., Ltd., priority 2000, dated 2007).

Data set [1] is described as follows: plasma half life of the drug. To be noted: in vivo.
Data set [2] relates to calcium-sensitive potassium channel. The note with it: known from PCT WO99/36068; cited from earlier work.

On to `Cc1c(-c2ccccc2F)[nH]c(N)c1C#N` [2-amino-3-cyano-5-(2-fluorophenyl)-4-methylpyrrole], for which the plasma half life entry in data set [1] is “short plasma half life”. For the same compound, the “potassium channel activating effect” value in data set [2] is given as “bladder-selective calcium-sensitive potassium channel activating effect”.
